The values that follow come from ChEMBL document CHEMBL1201862, “PubChem BioAssay data set” (2004).

Among the test systems are HCC 2998; MCF7; KM12; NCI/ADR-RES; NCI-H226; RXF 393; M14; MOLT-4; A549; BT-549; RPMI-8226; SNB-19; SF-539; EKVX; OVCAR-3; K562; SK-OV-3; SK-MEL-5; U-251; HOP-62.
What all share (experiment): growth of human tumour cells (NCI), 48 h

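Step 1: Grow cells in 96-well plates. Step 2: Expose to compound for 48 hours at 5 concentrations. Step 3: Interpolate endpoints linearly; if unreached, use highest concentration. At the GI50, growth is halved.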 Calls of active or inactive are those of the source. No stated cut-off is given here; in the data, active = GI50 up to about 1.1 µM and inactive = higher.

Turning to `NC1CCC(c2cc3ccccc3s2)(N2CCCCC2)CC1` (stereo not given), the GI50 in the experiment on HCC 2998 is 1.04 µM (active); with MCF7 it was 1.68 µM (inactive); in the experiment with KM12, 1.73 µM (inactive); in the experiment with NCI/ADR-RES, 1.19 µM (inactive); in the experiment with NCI-H226, 24.1 µM (inactive); in the experiment on RXF 393, 6.01 µM (inactive). The GI50 was 1.54 µM (inactive) with M14; 1.32 µM (inactive) with MOLT-4; 1.77 µM (inactive) in the experiment with A549; 1.21 µM (inactive) in the experiment on BT-549; 0.817 µM (active) in the experiment on RPMI-8226; 12.5 µM (inactive) with SNB-19. In addition, the GI50 was 2.06 µM (inactive) in the experiment with SF-539; 1.41 µM (inactive) in the experiment on EKVX; 1.27 µM (inactive) in the experiment on OVCAR-3; 1.63 µM (inactive) in the experiment on K562; 10.6 µM (inactive) in the experiment on SK-OV-3; 2.08 µM (inactive) with SK-MEL-5. Also, the figures for the GI50 in the experiment with U-251 and in the experiment on HOP-62 were 1.53 µM (inactive) and 1.35 µM (inactive), respectively.
For the molecule `CCCNC(=O)Cn1c(-c2ccccc2)cc2ccccc21`, the GI50 in the experiment with HCC 2998 is > 100 µM (inactive); with MCF7, 37.5 µM (inactive); in the experiment with KM12, > 100 µM (inactive); in the experiment with NCI/ADR-RES, 42.4 µM (inactive); with NCI-H226, > 100 µM (inactive); with RXF 393, 18.5 µM (inactive). The GI50 with M14 was > 100 µM (inactive); in the experiment with MOLT-4, 85.1 µM (inactive); in the experiment with A549, 67.1 µM (inactive); in the experiment on BT-549, > 100 µM (inactive); in the experiment with RPMI-8226 it was > 100 µM (inactive); with SNB-19, > 100 µM (inactive). For the same molecule, the GI50 with SF-539 is > 100 µM (inactive); in the experiment with EKVX, 30.6 µM (inactive); in the experiment with OVCAR-3, 91.8 µM (inactive); in the experiment with K562, > 100 µM (inactive); with SK-OV-3 it was 29.4 µM (inactive); in the experiment with SK-MEL-5, 30.5 µM (inactive). The figures for the GI50 in the experiment with U-251 and in the experiment on HOP-62 were > 100 µM (inactive) and 67.3 µM (inactive), respectively.
In the case of `N=C1C(=N)c2ccccc2-c2ccccc21`, the GI50 is 1.96 µM (inactive) with HCC 2998; 0.792 µM (active) in the experiment with MCF7; 1.85 µM (inactive) in the experiment on KM12; 0.492 µM (active) in the experiment on NCI/ADR-RES; 1.82 µM (inactive) in the experiment on NCI-H226; 1.82 µM (inactive) in the experiment on RXF 393. For the same molecule, the GI50 in the experiment with M14 is 1.05 µM (active); in the experiment with MOLT-4, 0.337 µM (active); in the experiment on A549, 1.74 µM (inactive); in the experiment on BT-549, 0.914 µM (active); in the experiment on RPMI-8226, 0.959 µM (active); in the experiment on SNB-19 it was 1.53 µM (inactive). The GI50 is 0.787 µM (active) with SF-539; 1.9 µM (inactive) with EKVX; 0.354 µM (active) in the experiment on OVCAR-3; 0.513 µM (active) in the experiment on K562; 1.7 µM (inactive) in the experiment on SK-OV-3; 0.308 µM (active) in the experiment on SK-MEL-5. Besides, the GI50 in the experiment with U-251 was 1.07 µM (active); in the experiment on HOP-62, 1.67 µM (inactive).
As for `O=CC12C3CCC1C2C(=O)C3` (stereo not given), the GI50 in the experiment on HCC 2998, in the experiment with MCF7, in the experiment with KM12, with NCI/ADR-RES, in the experiment with NCI-H226 and with RXF 393 was > 100 µM (inactive) in each case. Also, the GI50 with M14, in the experiment on MOLT-4, with A549, with BT-549, with RPMI-8226 and with SNB-19 was > 100 µM (inactive) in each case. Further, the GI50 in the experiment on SF-539, in the experiment on EKVX, with OVCAR-3, with K562, in the experiment with SK-OV-3 and with SK-MEL-5 was > 100 µM (inactive) each time. In addition, the GI50 with U-251 and in the experiment with HOP-62 was > 100 µM (inactive) throughout.
As for `N#CC(c1ccccc1)N(CCc1ccccc1)C(=O)Oc1ccccc1` (stereo not given), the GI50 with HCC 2998 is > 100 µM (inactive); in the experiment on MCF7, > 100 µM (inactive); in the experiment with KM12, > 100 µM (inactive); in the experiment on NCI/ADR-RES it was > 100 µM (inactive); with NCI-H226 it was 34.1 µM (inactive); in the experiment with RXF 393, 46.9 µM (inactive). In addition, the GI50 is > 100 µM (inactive) with M14; > 100 µM (inactive) in the experiment with MOLT-4; > 100 µM (inactive) in the experiment on A549; > 100 µM (inactive) with BT-549; > 100 µM (inactive) in the experiment on RPMI-8226; 53 µM (inactive) in the experiment with SNB-19. For the same molecule, the GI50 in the experiment on SF-539, in the experiment with EKVX, with OVCAR-3, in the experiment on K562, in the experiment with SK-OV-3 and with SK-MEL-5 was > 100 µM (inactive) in each case. For the same molecule, the GI50 in the experiment with U-251 is > 100 µM (inactive); with HOP-62, 82 µM (inactive).
As for `Cc1cccc(C)c1Nc1nc(C)c(C(=O)CC(=O)C(=O)Nc2c(C(C)C)cccc2C(C)C)s1`, the GI50 in the experiment on HCC 2998 is > 100 µM (inactive); in the experiment on MCF7 it was > 100 µM (inactive); with KM12, > 100 µM (inactive); with NCI/ADR-RES it was 73.8 µM (inactive); in the experiment with NCI-H226 it was > 100 µM (inactive); with RXF 393, 43.8 µM (inactive). In addition, the GI50 is > 100 µM (inactive) with M14; 72.9 µM (inactive) in the experiment on MOLT-4; > 100 µM (inactive) in the experiment with A549; > 100 µM (inactive) in the experiment on BT-549; 56.8 µM (inactive) in the experiment on RPMI-8226; > 100 µM (inactive) with SNB-19. Besides, the GI50 with SF-539 was > 100 µM (inactive); with EKVX, > 100 µM (inactive); in the experiment with OVCAR-3 it was 72.6 µM (inactive); in the experiment with K562, > 100 µM (inactive); with SK-OV-3, 89.7 µM (inactive); in the experiment on SK-MEL-5 it was > 100 µM (inactive). In addition, the GI50 with U-251 and in the experiment with HOP-62 was > 100 µM (inactive) throughout.
In the case of `O=C1CSC(=S)N1/N=C/c1ccc(Cl)c([N+](=O)[O-])c1`, the GI50 was 11.9 µM (inactive) with HCC 2998; 13.3 µM (inactive) with MCF7; 34.2 µM (inactive) in the experiment on KM12; 22.6 µM (inactive) with NCI/ADR-RES; 36.4 µM (inactive) in the experiment with NCI-H226; 33.8 µM (inactive) with RXF 393. The GI50 with M14 was 18.8 µM (inactive); in the experiment with MOLT-4, 31.1 µM (inactive); in the experiment with A549, 46.2 µM (inactive); with BT-549 it was 19.8 µM (inactive); in the experiment with RPMI-8226 it was 21.5 µM (inactive); with SNB-19, 22.9 µM (inactive). The GI50 is 32.8 µM (inactive) in the experiment on SF-539; 27.9 µM (inactive) with EKVX; 20.1 µM (inactive) with OVCAR-3; 38.3 µM (inactive) in the experiment with K562; 36.6 µM (inactive) in the experiment with SK-OV-3; 53.6 µM (inactive) in the experiment with SK-MEL-5. The results for the GI50 in the experiment on U-251 and in the experiment with HOP-62 were 18.5 µM (inactive) and 30.6 µM (inactive), respectively.
